This passage reports IC50 results from patent US20070004660A1, “Synergistic Modulation of Flt3 Kinase Using Alkylquinolines and Alkylquinazolines” (priority 2005, published 2007).

In general, IC50 refers to the midpoint of a concentration-inhibition curve. Low values mean greater potency, high ones weaker potency.

The target in the experiment is T1, wild-type FLT3 receptor (Homo sapiens, UniProt P36888).
T1 construct: host or cells: Baf3 (murine B cell lymphoma line), stably transfected
T1 sequence (P36888 27-993): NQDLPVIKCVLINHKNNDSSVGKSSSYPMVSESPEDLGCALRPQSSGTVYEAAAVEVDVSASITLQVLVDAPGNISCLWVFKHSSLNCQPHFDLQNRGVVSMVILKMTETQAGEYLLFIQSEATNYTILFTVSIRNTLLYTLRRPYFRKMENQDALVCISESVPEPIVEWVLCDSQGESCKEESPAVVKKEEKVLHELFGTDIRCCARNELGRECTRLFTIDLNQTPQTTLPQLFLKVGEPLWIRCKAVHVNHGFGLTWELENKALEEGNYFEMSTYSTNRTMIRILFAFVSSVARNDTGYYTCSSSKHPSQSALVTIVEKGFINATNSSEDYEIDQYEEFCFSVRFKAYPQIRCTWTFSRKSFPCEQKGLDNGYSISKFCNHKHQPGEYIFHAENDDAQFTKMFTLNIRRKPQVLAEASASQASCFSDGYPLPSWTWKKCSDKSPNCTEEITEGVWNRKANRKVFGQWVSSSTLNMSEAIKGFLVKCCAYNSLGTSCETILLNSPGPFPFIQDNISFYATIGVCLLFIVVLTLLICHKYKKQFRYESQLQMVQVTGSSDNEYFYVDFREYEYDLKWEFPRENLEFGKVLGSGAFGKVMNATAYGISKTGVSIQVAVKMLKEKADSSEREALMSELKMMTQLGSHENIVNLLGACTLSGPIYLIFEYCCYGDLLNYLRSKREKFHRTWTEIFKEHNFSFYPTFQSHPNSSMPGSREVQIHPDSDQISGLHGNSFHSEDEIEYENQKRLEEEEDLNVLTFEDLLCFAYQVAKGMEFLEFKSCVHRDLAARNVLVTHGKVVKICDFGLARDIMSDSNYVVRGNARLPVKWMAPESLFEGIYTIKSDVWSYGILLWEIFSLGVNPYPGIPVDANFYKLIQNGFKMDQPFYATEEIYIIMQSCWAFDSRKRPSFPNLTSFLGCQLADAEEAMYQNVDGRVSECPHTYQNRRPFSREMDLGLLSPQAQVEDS
Nature of the experiment: Cell-based FLT3 receptor ELISA (FLT ligand-induced phosphorylation in Baf3 FLT3 cells). The following applies: 100 ng/mL Flt ligand, uncertainty ±20%. The procedure, abridged:
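Receptor phosphotyrosine measured by sandwich ELISA (anti-FLT3 capture, HRP anti-pTyr, luminescence) in FLT3-transfected murine Baf3 cells given 1 h compound pretreatment and 10 min 100 ng/mL FLT ligand after overnight low-serum starvation; triplicates, IC50 from nonlinear regression.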
In turn, `O=C(Nc1ccc(N2CCCC2)cc1)N1CCC(c2ncnc3cc(N4CCN(c5ccccn5)CC4)ccc23)CC1` [Compound 192, 4-[7-(4-Pyridin-2-yl-piperazin-1-yl)-quinazolin-4-yl]-piperidine-1-carboxylic acid (4-pyrrolidin-1-yl-phenyl)-amide] yielded an IC50 of 1 nM. The compound `O=C1CN(c2ccc3c(C4CCN(C(=O)Nc5ccc(N6CCCC6)cc5)CC4)ncnc3c2)CCN1` [Compound 183, 4-[7-(3-Oxo-piperazin-1-yl)-quinazolin-4-yl]-piperidine-1-carboxylic acid (4-pyrrolidin-1-yl-phenyl)-amide] yielded an IC50 of 31 nM. The compound `CCN1CCN(c2ccc3c(C4CCN(C(=O)Nc5ccc(N6CCOCC6)cc5)CC4)ncnc3c2)CC1` [Example 136, 4-[7-(4-Ethyl-piperazin-1-yl)-quinazolin-4-yl]-piperidine-1-carboxylic acid (4-morpholin-4-yl-phenyl)-amide] showed an IC50 of 36 nM. The IC50 values of the last two compounds are within 1.5-fold of each other.

In turn, `CN1CCN(c2ccc3c(C4CCN(C(=O)Nc5ccc(N6CCOCC6)cc5)CC4)ncnc3c2)CC1` [Example 135, 4-[7-(4-Methyl-piperazin-1-yl)-quinazolin-4-yl]-piperidine-1-carboxylic acid (4-morpholin-4-yl-phenyl)-amide] gave an IC50 of 27 nM. As to `O=C(Nc1ccc(N2CCCC2)cc1)N1CCC(c2ncnc3cc(OC4CCOCC4)ccc23)CC1` [Compound 189, 4-[7-(Tetrahydro-pyran-4-yloxy)-quinazolin-4-yl]-piperidine-1-carboxylic acid (4-pyrrolidin-1-yl-phenyl)-amide], the midpoint of inhibition, the IC50, lay at 104 nM. For `CC(=O)N1CC[C@@H](Oc2ccc3c(C4CCN(C(=O)Nc5ccc(N6CCCC6)cc5)CC4)ncnc3c2)C1` [Example 154, (R)-4-[7-(1-Acetyl-pyrrolidin-3-yloxy)-quinazolin-4-yl]-piperidine-1-carboxylic acid (4-pyrrolidin-1-yl-phenyl)-amide] the value was 2 nM.

Compound `COc1cc2ncnc(C3CCN(C(=O)Nc4ccc5[nH]ccc5c4)CC3)c2cc1OC` [Example 23, 4-(6,7-Dimethoxy-quinazolin-4-yl)-piperidine-1-carboxylic acid (1H-indol-5-yl)-amide] yielded an IC50 of 900 nM. This IC50 lies about 450-fold higher than the previous one.

On to `O=C(Nc1ccc(N2CCOCC2)cc1)N1CCC(c2ncnc3cc(OCCN4CCC[C@H]4CO)ccc23)CC1` [Example 153, (S)-4-{7-[2-(2-Hydroxymethyl-pyrrolidin-1-yl)-ethoxy]-quinazolin-4-yl}-piperidine-1-carboxylic acid (4-morpholin-4-yl-phenyl)-amide], for which the IC50 is 110 nM. With `COc1cc2ncnc(C3CCN(C(=O)Nc4ccc(OC5CCC5)nc4)CC3)c2cc1OC` [Example 17, 4-(6,7-Dimethoxy-quinazolin-4-yl)-piperidine-1-carboxylic acid (6-cyclobutoxy-pyridin-3-yl)-amide], the IC50 turned out to be 292 nM. For `CN1CCN(c2ccc3c(C4CCN(C(=O)Nc5ccc(N6CCCC6)cc5)CC4)ncnc3c2)CC1=O` [Compound 184, 4-[7-(4-Methyl-3-oxo-piperazin-1-yl)-quinazolin-4-yl]-piperidine-1-carboxylic acid (4-pyrrolidin-1-yl-phenyl)-amide], the IC50 came out at 98 nM. The compound `O=C(Nc1ccc(N2CCCC2)cc1)N1CCC(c2ncnc3cc(N4CCC4)ccc23)CC1` [Example 173, 4-(7-Azetidin-1-yl-quinazolin-4-yl)-piperidine-1-carboxylic acid (4-pyrrolidin-1-yl-phenyl)-amide] came in with an IC50 of 2 nM. As for `CC(=O)N1CCN(c2ccc3c(C4CCN(C(=O)Nc5ccc(N6CCOCC6)cc5)CC4)ncnc3c2)CC1` [Example 141, 4-[7-(4-Acetyl-piperazin-1-yl)-quinazolin-4-yl]-piperidine-1-carboxylic acid (4-morpholin-4-yl-phenyl)-amide], the IC50 amounted to 2 nM.

`CS(=O)(=O)N1CCN(c2ccc3c(C4CCN(C(=O)Nc5ccc(N6CCCC6)cc5)CC4)ncnc3c2)CC1` [Example 167, 4-[7-(4-Methanesulfonyl-piperazin-1-yl)-quinazolin-4-yl]-piperidine-1-carboxylic acid (4-pyrrolidin-1-yl-phenyl)-amide]: it took 3 nM to reach half-maximal inhibition (IC50). For `O=C(COc1ccc2c(C3CCN(C(=O)Nc4ccc(N5CCCC5)cc4)CC3)ncnc2c1)N1CCOCC1` [Example 172, 4-[7-(2-Morpholin-4-yl-2-oxo-ethoxy)-quinazolin-4-yl]-piperidine-1-carboxylic acid (4-pyrrolidin-1-yl-phenyl)-amide] the value was 149 nM; for `CN(C)CC(=O)N1CCN(c2ccc3c(C4CCN(C(=O)Nc5ccc(N6CCOCC6)cc5)CC4)ncnc3c2)CC1` [Example 144, 4-{7-[4-(2-Dimethylamino-acetyl)-piperazin-1-yl]-quinazolin-4-yl}-piperidine-1-carboxylic acid (4-morpholin-4-yl-phenyl)-amide], 170 nM. As for `CC(C)Oc1ccc(NC(=O)N2CCC(c3ncnc4ccc(N5CCN(C)CC5)cc34)CC2)cc1` [Example 131, 4-[6-(4-Methyl-piperazin-1-yl)-quinazolin-4-yl]-piperidine-1-carboxylic acid (4-isopropoxy-phenyl)-amide], the IC50 stood at 226 nM. With `CN1CCC[C@H]1COc1ccc2c(C3CCN(C(=O)Nc4ccc(N5CCCC5)cc4)CC3)ncnc2c1` [Example 151, (S)-4-[7-(1-Methyl-pyrrolidin-2-ylmethoxy)-quinazolin-4-yl]-piperidine-1-carboxylic acid (4-pyrrolidin-1-yl-phenyl)-amide] the figure was 45 nM; with `O=C(Nc1ccc(N2CCCC2)cc1)N1CCC(c2ncnc3cc(N4CCN(c5ncccn5)CC4)ccc23)CC1` [Compound 193, 4-[7-(4-Pyrimidin-2-yl-piperazin-1-yl)-quinazolin-4-yl]-piperidine-1-carboxylic acid (4-pyrrolidin-1-yl-phenyl)-amide], 3 nM; with `O=C(Nc1ccc(N2CCCC2)cc1)N1CCC(c2ncnc3cc(OCCN4CCOC4=O)ccc23)CC1` [Example 147, 4-{7-[2-(2-Oxo-oxazolidin-3-yl)-ethoxy]-quinazolin-4-yl}-piperidine-1-carboxylic acid (4-pyrrolidin-1-yl-phenyl)-amide], 0.2 nM. Compound `O=C(Nc1ccc(N2CCOCC2)cc1)N1CCC(c2ncnc3cc(N4CC[C@H](O)C4)ccc23)CC1` [Example 128, 4-[7-(3-Hydroxy-pyrrolidin-1-yl)-quinazolin-4-yl]-piperidine-1-carboxylic acid (4-morpholin-4-yl-phenyl)-amide] yielded an IC50 of 58 nM. As to `O=C(Nc1ccc(N2CCOCC2)cc1)N1CCC(c2ncnc3cc(OCCCN4CCOCC4)ccc23)CC1` [Example 133, 4-[7-(3-Morpholin-4-yl-propoxy)-quinazolin-4-yl]-piperidine-1-carboxylic acid (4-morpholin-4-yl-phenyl)-amide], it took 26 nM to reach half-maximal inhibition (IC50). This IC50 lies about 2.2-fold lower than the previous one. With `O=C(Nc1ccc(N2CCCC2)cc1)N1CCC(c2ncnc3cc(N4CCNC4=O)ccc23)CC1` [Compound 178, 4-[7-(2-Oxo-imidazolidin-1-yl)-quinazolin-4-yl]-piperidine-1-carboxylic acid (4-pyrrolidin-1-yl-phenyl)-amide], half-maximal inhibition (IC50) required 4 nM.

As to `CC(=O)N1CCC(COc2ccc3c(C4CCN(C(=O)Nc5ccc(N6CCCC6)cc5)CC4)ncnc3c2)CC1` [Example 163, 4-[7-(1-Acetyl-piperidin-4-ylmethoxy)-quinazolin-4-yl]-piperidine-1-carboxylic acid (4-pyrrolidin-1-yl-phenyl)-amide], the IC50 is 118 nM. `COc1cc2ncnc(C3CCN(C(=O)Nc4ccc(N5CCOCC5)cc4)CC3)c2cc1OC` [Example 18, 4-(6,7-Dimethoxy-quinazolin-4-yl)-piperidine-1-carboxylic acid (4-morpholin-4-yl-phenyl)-amide] returned an IC50 of 104 nM.

With `COc1cc2ncnc(C3CCN(C(=O)Nc4ccc5ncsc5c4)CC3)c2cc1OC` [Example 24, 4-(6,7-Dimethoxy-quinazolin-4-yl)-piperidine-1-carboxylic acid benzothiazol-6-ylamide], half-maximal inhibition (IC50) required 2600 nM.

The compound `CN1CCN(CCOc2ccc3c(C4CCN(C(=O)Nc5ccc(N6CCCC6)cc5)CC4)ncnc3c2)CC1=O` [Compound 202, 4-{7-[2-(4-Methyl-3-oxo-piperazin-1-yl)-ethoxy]-quinazolin-4-yl}-piperidine-1-carboxylic acid (4-pyrrolidin-1-yl-phenyl)-amide] registered an IC50 of 15 nM.
